In patent USRE38117E1, “Trioxane dimer compound having antiproliferative and antitumor activities” (Hauser, Inc., priority 1995, dated 2003):

How the values were obtained:
Format in all cases: cell-based
[1] = tested on: HCT-15; assay: NCI 60 cell line screen (SRB), Colon Cancer; conditions: HCT-15 (Colon Cancer)
[2] = tested on: MOLT-4; assay: NCI 60 cell line screen (SRB), Leukemia; conditions: MOLT-4 (Leukemia)
[3] = tested on: OVCAR-3; assay: NCI 60 cell line screen (SRB), Ovarian Cancer; conditions: OVCAR-3 (Ovarian Cancer)
[4] = tested on: EKVX; assay: NCI 60 cell line screen (SRB), Non-Small Cell Lung Cancer
[5] = tested on: NCI-H460; assay: as above
[6] = tested on: SF-295; assay: NCI 60 cell line screen (SRB), CNS Cancer; conditions: SF-295 (CNS Cancer)
[7] = tested on: HOP-62; assay: NCI 60 cell line screen (SRB), Non-Small Cell Lung Cancer; conditions: HOP-62 (Non-Small Cell Lung Cancer)
[8] = tested on: HS 578T; assay: NCI 60 cell line screen (SRB), Breast Cancer; conditions: HS 578T (Breast Cancer)
[9] = tested on: MDA-MB231/ATCC; assay: NCI 60 cell line screen (SRB), Breast Cancer
[10] = tested on: 786-0; assay: NCI 60 cell line screen (SRB), Renal Cancer; conditions: 786-0 (Renal Cancer)
[11] = tested on: OVCAR-4; assay: NCI 60 cell line screen (SRB), Ovarian Cancer; conditions: OVCAR-4 (Ovarian Cancer)
[12] = tested on: HCT-116; assay: NCI 60 cell line screen (SRB), Colon Cancer; conditions: HCT-116 (Colon Cancer)
[13] = tested on: SK-MEL-28; assay: NCI 60 cell line screen (SRB), Melanoma; conditions: SK-MEL-28 (Melanoma)
[14] = tested on: ACHN; assay: NCI 60 cell line screen (SRB), Renal Cancer
[15] = tested on: U251; assay: NCI 60 cell line screen (SRB), CNS Cancer
[16] = tested on: SN12C; assay: NCI 60 cell line screen (SRB), Renal Cancer
[17] = tested on: MALME-3M; assay: NCI 60 cell line screen (SRB), Melanoma; conditions: MALME-3M (Melanoma)
[18] = tested on: UACC-257; assay: NCI 60 cell line screen (SRB), Melanoma; conditions: UACC-257 (Melanoma)
[19] = tested on: SNB-75; assay: NCI 60 cell line screen (SRB), CNS Cancer; conditions: SNB-75 (CNS Cancer)
[20] = tested on: SK-MEL-5; assay: NCI 60 cell line screen (SRB), Melanoma; conditions: SK-MEL-5 (Melanoma)
[21] = tested on: A498; assay: NCI 60 cell line screen (SRB), Renal Cancer
[22] = tested on: SF-539; assay: NCI 60 cell line screen (SRB), CNS Cancer; conditions: SF-539 (CNS Cancer)
[23] = tested on: MDA-N; assay: NCI 60 cell line screen (SRB), Breast Cancer
[24] = tested on: UACC-62; assay: NCI 60 cell line screen (SRB), Melanoma; conditions: UACC-62 (Melanoma)
[25] = tested on: HOP-92; assay: NCI 60 cell line screen (SRB), Non-Small Cell Lung Cancer; conditions: HOP-92 (Non-Small Cell Lung Cancer)
[26] = tested on: TK-10; assay: NCI 60 cell line screen (SRB), Renal Cancer; conditions: TK-10 (Renal Cancer)
[27] = tested on: CCRF-CEM; assay: NCI 60 cell line screen (SRB), Leukemia
[28] = tested on: HCC-2998; assay: NCI 60 cell line screen (SRB), Colon Cancer; conditions: HCC-2998 (Colon Cancer)
[29] = tested on: MCF7/ADR-RES; assay: NCI 60 cell line screen (SRB), Breast Cancer
[30] = tested on: CAKI-1; assay: NCI 60 cell line screen (SRB), Renal Cancer; conditions: CAKI-1 (Renal Cancer)
[31] = tested on: NCI-H23; assay: NCI 60 cell line screen (SRB), Non-Small Cell Lung Cancer
[32] = tested on: K-562; assay: NCI 60 cell line screen (SRB), Leukemia; conditions: K-562 (Leukemia)

Structure (SMILES): COC1OC2(C)CCC3CCCC(CCOC(=O)c4ccc(C(=O)OCCC5CCCC6CCC7(C)OOC56C(OC)O7)cc4)C31OO2 (stereo not shown) [Compound 11, Bis-ester Dimer]
- Log10GI50 [1]: −6.12 M
- Log10LC50 [1]: >−4.00 M
- Log10TGI [1]: >−4.00 M
- Log10GI50 [2]: −6.67 M
- Log10LC50 [2]: >−4.00 M
- Log10TGI ([2]; listed as Terephtalate Dimer): −4.70 M
- Log10TGI ([2]; listed as terephthalate dimer): 6.20 M
- Log10GI50 [3]: −5.63 M
- Log10LC50 [3]: >−4.00 M
- Log10TGI [3]: >−4.00 M
- Log10GI50 [4]: −5.20 M
- Log10LC50 [4]: >−4.00 M
- Log10TGI [4]: >−4.00 M
- Log10GI50 [5]: −6.02 M
- Log10LC50 [5]: >−4.00 M
- Log10TGI [5]: >−4.00 M
- Log10GI50 [6]: −5.49 M
- Log10LC50 [6]: >−4.00 M
- Log10TGI [6]: >−4.00 M
- Log10GI50 [7]: −5.01 M
- Log10LC50 [7]: >−4.00 M
- Log10TGI [7]: >−4.00 M
- Log10GI50 [8]: −4.55 M
- Log10LC50 [8]: >−4.00 M
- Log10TGI [8]: >−4.00 M
- Log10GI50 [9]: −5.18 M
- Log10LC50 [9]: >−4.00 M
- Log10TGI [9]: >−4.00 M
- Log10GI50 [10]: −5.41 M
- Log10LC50 [10]: >−4.00 M
- Log10TGI [10]: >−4.00 M
- Log10GI50 [11]: −5.26 M
- Log10LC50 [11]: >−4.00 M
- Log10TGI [11]: >−4.00 M
- Log10GI50 [12]: −6.30 M
- Log10LC50 [12]: >−4.00 M
- Log10TGI [12]: >−4.00 M
- Log10GI50 [13]: −4.31 M
- Log10LC50 [13]: >−4.00 M
- Log10TGI [13]: >−4.00 M
- Log10GI50 [14]: −5.42 M
- Log10LC50 [14]: >−4.00 M
- Log10TGI [14]: >−4.00 M
- Log10GI50 [15]: −6.02 M
- Log10LC50 [15]: >−4.00 M
- Log10TGI [15]: >−4.00 M
- Log10GI50 [16]: −5.46 M
- Log10LC50 [16]: >−4.00 M
- Log10TGI [16]: >−4.00 M
- Log10GI50 [17]: −5.03 M
- Log10LC50 [17]: >−4.00 M
- Log10TGI [17]: >−4.00 M
- Log10GI50 [18]: −5.36 M
- Log10LC50 [18]: >−4.00 M
- Log10TGI [18]: >−4.00 M
- Log10GI50 [19]: −5.66 M
- Log10LC50 [19]: >−4.00 M
- Log10GI50 [20]: −6.00 M
- Log10LC50 [20]: >−4.00 M
- Log10TGI [20]: >−4.00 M
- Log10GI50 [21]: >−4.00 M
- Log10LC50 [21]: >−4.00 M
- Log10TGI [21]: >−4.00 M
- Log10LC50 [22]: >−4.00 M
- Log10GI50 [23]: −5.56 M
- Log10LC50 [23]: >−4.00 M
- Log10TGI [23]: >−4.00 M
- Log10GI50 [24]: −5.87 M
- Log10LC50 [24]: >−4.00 M
- Log10TGI [24]: >−4.00 M
- Log10GI50 [25]: −4.91 M
- Log10LC50 [25]: >−4.00 M
- Log10TGI [25]: >−4.00 M
- Log10GI50 [26]: −5.06 M
- Log10LC50 [26]: >−4.00 M
- Log10TGI [26]: >−4.00 M
- Log10GI50 [27]: −6.57 M
- Log10LC50 [27]: −4.05 M
- Log10TGI [27]: −4.89 M
- Log10GI50 [28]: −4.56 M
- Log10LC50 [28]: >−4.00 M
- Log10TGI [28]: >−4.00 M
- Log10GI50 [29]: −5.11 M
- Log10LC50 [29]: >−4.00 M
- Log10TGI [29]: >−4.00 M
- Log10GI50 [30]: −4.99 M
- Log10LC50 [30]: >−4.00 M
- Log10TGI [30]: >−4.00 M
- Log10GI50 [31]: −6.03 M
- Log10LC50 [31]: >−4.00 M
- Log10TGI [31]: −4.19 M
- Log10GI50 [32]: −6.57 M
- Log10LC50 [32]: >−4.00 M
- Log10TGI [32]: >−4.00 M
